Laboratory results: PMC3463139 (Journal of medicinal chemistry, 2012)
Read-outs that look alike come from different tables or passages of the source.

Tests used:
[1] = target: T1, hA1AR (Homo sapiens, UniProt P30542); experiment: Radioligand binding at hA1AR; settings: for AR subtype selectivity in binding (in words): A1, A2A and A3 ARs compared
T1 sequence (P30542 1-326): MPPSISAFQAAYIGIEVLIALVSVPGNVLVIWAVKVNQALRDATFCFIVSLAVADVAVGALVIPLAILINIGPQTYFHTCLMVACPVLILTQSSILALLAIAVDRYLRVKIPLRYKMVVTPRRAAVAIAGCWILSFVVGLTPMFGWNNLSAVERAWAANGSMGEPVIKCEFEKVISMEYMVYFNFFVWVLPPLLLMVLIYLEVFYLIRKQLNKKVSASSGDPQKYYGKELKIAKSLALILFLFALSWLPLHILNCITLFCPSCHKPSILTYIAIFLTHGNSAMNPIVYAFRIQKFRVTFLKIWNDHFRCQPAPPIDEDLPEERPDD

[2] = target: T1, hA1AR; assay type: cell-based; settings: for Agonist efficacy at A1AR (in words): cyclic AMP assay, 10 μM
[3] = tested on: mice; experiment: 6 Hz minimal clonic seizure test; assay type: in vivo
[4] = tested on: mice; experiment: Maximal electroshock; assay type: in vivo; settings: for MES model, number of animals protected from convulsions: qualitative
[5] = tested on: mice; experiment: Subcutaneous metrazol; assay type: in vivo; settings: for scMET model, number of animals protected from convulsions: qualitative
[6] = tested on: mice; experiment: Corneal kindled mouse model of partial seizures; assay type: in vivo; settings: i.p.
[7] = target: T1, hA1AR; settings: at 10 μM; relative to 44a (100%); ref Tosh et al.[20] or Gao et al. [21]; cited from earlier work
[8] = target: T2, hA3AR (Homo sapiens, UniProt P0DMS8); experiment: Radioligand binding at hA3AR; settings: replacement of 2-Cl with 2-H
T2 sequence (P0DMS8 1-318): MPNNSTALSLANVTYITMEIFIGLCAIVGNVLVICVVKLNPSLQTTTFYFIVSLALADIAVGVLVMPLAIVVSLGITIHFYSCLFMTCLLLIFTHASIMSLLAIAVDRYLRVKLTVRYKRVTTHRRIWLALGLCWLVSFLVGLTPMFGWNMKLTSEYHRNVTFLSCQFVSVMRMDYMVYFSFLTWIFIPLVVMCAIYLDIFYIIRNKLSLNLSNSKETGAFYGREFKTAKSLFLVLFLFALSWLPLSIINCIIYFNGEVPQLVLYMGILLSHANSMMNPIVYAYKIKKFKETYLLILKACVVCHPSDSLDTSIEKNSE

[9] = in vivo; settings: male, CF No 1 albino, mouse, ip
[10] = target: rat A1AR; settings: read-out: Kd at rat A1AR; cited from earlier work

With `O[C@@H]1[C@H](O)[C@@H]2C[C@@H]2[C@H]1n1cnc2c(NCC(C3CC3)C3CC3)nc(Cl)nc21` [Compound 7, (1R,2R,3S,4R,5S)-4-(2-Chloro-6-(2,2-dicyclopropylethylamino)-9H-purin-9-yl)bicyclo[3.1.0]hexane-2,3-diol] the “AR subtype selectivity in binding (in words)” value (from here on “AR subtype selectivity”) [1] was “nonselective”.

With `O[C@@H]1[C@H](O)[C@@H]2C[C@@H]2[C@H]1n1cnc2c(NC(C3CC3)C3CC3)nc(Cl)nc21` [Compound 10] the “Agonist efficacy at A1AR (in words)” value [2] was “full agonist”, the “6 Hz model, animals protected” value ([3]; 30 mg/kg i.p. (highest dose tested)) was 7 out of 8 and the “6 Hz model, mice protected” value ([3]; […] i.p.) was 4 out of 8. For the same molecule, the “Response in 6 Hz model (in words)” value ([3]; mice, i.p.) was “active”, the “MES model, number of animals protected from convulsions” value (“MES model, number of animals protected” below) ([4]; 3 mg/kg i.p.) was 1 out of 4 (3 mg/kg) and the “Response in MES model (in words)” value ([4]; i.p.) was “inactive”. The “scMET model, number of animals protected from convulsions” value (“scMET model, number” below) ([5]; 3 mg/kg i.p.) was “No protection (3 mg/kg)”, the “Response in scMET model (in words)” value ([5]; i.p.) was “inactive” and the “Corneal kindled mouse model EC50 (±SE)” value ([6]; at 1 h post injection) was 1.79 ± 0.71 mg/kg. For the same molecule, the “Response in corneal kindling model (in words)” value ([6]; mice) was “active” and the “% Inhibition, cyclic AMP, A1 (maximal efficacy)” value [7] was 80–100%.

With `O[C@@H]1[C@H](O)[C@@H]2C[C@@H]2[C@H]1n1cnc2c(NC(C3CCCC3)C3CCCC3)nc(Cl)nc21` [Compound 11, (1R,2R,3S,4R,5S)-4-(2-Chloro-6-(dicyclopentylmethylamino)-9H-purin-9-yl)bicyclo[3.1.0]hexane-2,3-diol] the inhibition at 10 µM ([1]; read-out: % inhibition of radioligand binding, A1, at 10 μM, [3H]R-PIA, CHO cells) was less than 50%.

For `CC(C)[C@@H](Nc1nc(Cl)nc2c1ncn2[C@H]1[C@H](O)[C@H](O)[C@@H]2C[C@@H]21)C1CC1` [Compound 14, (1R,2R,3S,4R,5S)-4-(2-Chloro-6-((R)-1-cyclopropyl-2-methyl-propylamino)-9H-purin-9-yl)bicyclo[3.1.0]hexane-2,3-diol], the “AR subtype selectivity” value [1] was “moderately selective for the A1AR”.

In the case of `CC(C)[C@H](Nc1nc(Cl)nc2c1ncn2[C@H]1[C@H](O)[C@H](O)[C@@H]2C[C@@H]21)C1CC1` [Compound 15, (1R,2R,3S,4R,5S)-4-(2-Chloro-6-((S)-1-cyclopropyl-2-methyl-propylamino)-9H-purin-9-yl)bicyclo[3.1.0]hexane-2,3-diol], the “AR subtype selectivity” value [1] is reported as “moderately selective for the A1AR”.

With `O[C@@H]1[C@H](O)[C@@H]2C[C@@H]2[C@H]1n1cnc2c(N[C@@H](c3ccccc3)C3CC3)nc(Cl)nc21` [Compound 20, (1R,2R,3S,4R,5S)-4-(2-Chloro-6-((R)-cyclopropylphenylmethylamino)-9H-purin-9-yl)bicyclo[3.1.0]hexane-2,3-diol] the “Agonist efficacy at A1AR (in words)” value [2] was “did not activate the A1AR” and the “AR subtype selectivity” value [1] was “bound weakly at the three ARs”.

In the case of `O[C@@H]1[C@H](O)[C@@H]2C[C@@H]2[C@H]1n1cnc2c(N[C@H](c3ccccc3)C3CC3)nc(Cl)nc21` [Compound 21, (1R,2R,3S,4R,5S)-4-(2-Chloro-6-((S)-cyclopropylphenylmethylamino)-9H-purin-9-yl)bicyclo[3.1.0]hexane-2,3-diol], the “AR subtype selectivity” value [1] is reported as “bound weakly at the three ARs”.

In the case of `O[C@@H]1[C@H](O)[C@@H]2C[C@@H]2[C@H]1n1cnc2c(NC(C3CC3)C3CC3)ncnc21` [Compound 37a], the “Increase of affinity at the A3AR relative to compound 10” value [8] is reported as 28 fold.

With `NNc1nc(NC(C2CC2)C2CC2)c2ncn([C@H]3[C@H](O)[C@H](O)[C@@H]4C[C@@H]43)c2n1` [Compound 40] the “AR subtype selectivity” value [1] was “nonselective”.

With `COC(=O)c1cnn(-c2nc(NC(C3CC3)C3CC3)c3ncn([C@H]4[C@H](O)[C@H](O)[C@@H]5C[C@@H]54)c3n2)c1` [Compound 42] the “AR subtype selectivity” value [1] was “weak nonselective”.

In the case of `O=C(O)c1cnn(-c2nc(NC(C3CC3)C3CC3)c3ncn([C@H]4[C@H](O)[C@H](O)[C@@H]5C[C@@H]54)c3n2)c1` [Compound 43], the “AR subtype selectivity” value [1] is reported as “weak nonselective”.

In the case of `OC[C@H]1O[C@@H](n2cnc3c(NC4CCCC4)nc(Cl)nc32)[C@H](O)[C@@H]1O` [Compound 44b, 2-chloro-N^6-cyclopentyladenosine, reference compound], the “MES model, number of animals protected” value ([4]; 1 mg/kg i.p.) is reported as 1 out of 4 at (1 mg/kg), the “scMET model, number” value ([5]; 1 mg/kg i.p.) is reported as 1 out of 4 (1 mg/kg) and the TD50 at 1 h [9] is reported as 0.84 mg/kg.

For `CCNC(=O)[C@H]1O[C@@H](n2cnc3c(N)ncnc32)[C@H](O)[C@@H]1O` [Compound 45, 5′-N-ethylcarboxamidoadenosine, reference compound], the “% Inhibition, cyclic AMP, A1 (maximal efficacy)” value ([2]; at 10 μM, relative to effect (100%) of full agonist 44a at 10 μM, CHO cells, n = 3–5) was 100±15% and the “Agonist efficacy at A1AR (in words)” value [2] was “full agonist”.

In the case of `NCCNC(=O)Cc1ccc(NC(=O)Cc2ccc(Nc3ncnc4c3ncn4[C@@H]3O[C@H](CO)[C@@H](O)[C@H]3O)cc2)cc1` [Compound 46, N^6-[4-[[[4-[[[(2-Aminoethyl)amino]carbonyl]methyl]anilino]carbonyl]methyl]phenyl]adenosine, reference compound], the “MES model, number of animals protected” value ([4]; 2 mg/kg i.p.) is reported as 4 out of 8 (2mg/kg) and the “scMET model, number” value ([5]; 1 mg/kg i.p.) is reported as 5 out of 8 (1 mg/kg).

For `C[C@H](CSc1nc2ccccc2s1)Nc1nc(Cl)nc2c1ncn2[C@@H]1O[C@H](CO)[C@@H](O)[C@H]1O` [NNC-21-0136, N^6-[R-(2-benzothiazolyl)thio-2-propyl]-2-chloroadenosine], the Kd [10] is given as 1.16 nM.
